Assay results from patent US10113155B2, “Steviol glycosyltransferase and gene encoding same” (SUNTORY HOLDINGS LIMITED, priority 2012, dated 2018).

How the values were obtained:
[1] = target: T1, UGT73E1 homologous protein 1 (Stevia rebaudiana, UniProt Q6VAA9); test: Enzyme activity of UGT73E1 homologous protein 1: glucosylation of sugar acceptor substrates, LC-MS analysis; type: biochemical; details: for products found in the reaction solution with UGT73E1 homologous protein 1: 2 mM UDP-glucose, 0.1 mM sugar acceptor substrate, potassium phosphate buffer pH 7.0, 30° C., 1 hour
T1 construct: designed to carry the open reading frame of the UGT73E1 homologous protein 1 gene in frame with a His tag; made in house; host or cells: E. coli BL21(DE3)
T1 sequence (Q6VAA9 whole entry H50D/D106H/L131W/P152K/L157P/I160M/V199L/A305T/L422S): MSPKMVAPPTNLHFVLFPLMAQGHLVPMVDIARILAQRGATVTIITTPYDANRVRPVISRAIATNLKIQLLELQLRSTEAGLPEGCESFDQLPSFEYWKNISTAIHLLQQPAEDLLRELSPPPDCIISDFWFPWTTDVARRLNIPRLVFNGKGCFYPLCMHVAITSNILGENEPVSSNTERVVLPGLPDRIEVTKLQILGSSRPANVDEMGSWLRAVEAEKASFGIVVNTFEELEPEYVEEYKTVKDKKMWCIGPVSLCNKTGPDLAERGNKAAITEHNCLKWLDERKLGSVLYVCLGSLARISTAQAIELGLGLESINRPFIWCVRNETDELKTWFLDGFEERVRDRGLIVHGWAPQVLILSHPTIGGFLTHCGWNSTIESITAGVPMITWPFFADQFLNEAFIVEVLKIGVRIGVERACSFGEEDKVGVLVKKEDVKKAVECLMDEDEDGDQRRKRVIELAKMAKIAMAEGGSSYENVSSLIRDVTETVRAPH
Experimental: Standard enzyme reaction conditions are as follows. A reaction solution (2 mM UDP-glucose, 0.1 mM sugar acceptor substrate (steviol), 100 mM potassium phosphate buffer (pH 7.0), 25 μl purified UGT73E1 homologous protein 1 enzyme solution) was prepared in a volume of 50 μl with distilled water and reacted at 30° C. for 1 hour. The enzyme reaction solution (5 μl) was analyzed by LC-MS under the following conditions.
Column: Waters Sunfire C18 3.5 um (2.0 mm I.D.×20 mm)
Mobile phase: A: MilliQ Water (+0.05% formic acid), B: MeCN
Gradient: linear concentration gradient of B from 15% to 55% over 20 minutes
Flow rate: 0.2 ml per minute

[2] = reported in previous studies (Non-patent Document 2); cited from earlier work

C=C1C[C@@]23CC[C@H]4[C@@](C)(CCC[C@@]4(C)C(=O)O)[C@@H]2CC[C@]1(O[C@@H]1O[C@H](CO)[C@@H](O)[C@H](O)[C@H]1O)C3 [steviolmonoside]
products found in the reaction solution with UGT73E1 homologous protein 1 [1]: two peaks (peak E and peak F) were newly obtained

C=C1C[C@@]23CC[C@H]4[C@@](C)(CCC[C@@]4(C)C(=O)O)[C@@H]2CC[C@]1(O)C3 (single isomer, unassigned) [steviol]
products found in the reaction solution with UGT73E1 homologous protein 1 [1]: four types of products were newly found

C=C1C[C@@]23CC[C@H]4[C@@](C)(CCC[C@@]4(C)C(=O)O)[C@@H]2CC[C@]1(O[C@@H]1O[C@H](CO)[C@@H](O)[C@H](O)[C@H]1O[C@@H]1O[C@H](CO)[C@@H](O)[C@H](O)[C@H]1O)C3 [steviolbioside]
products found in the reaction solution with UGT73E1 homologous protein 1 [1]: a product which appears to be stevioside (peak F) was also detected

C=C1C[C@@]23CC[C@H]4[C@@](C)(CCC[C@@]4(C)C(=O)O[C@@H]4O[C@H](CO)[C@@H](O)[C@H](O)[C@H]4O)[C@@H]2CC[C@]1(O[C@@H]1O[C@H](CO)[C@@H](O)[C@H](O)[C@H]1O)C3 [rubusoside]
products found in the reaction solution with UGT73E1 homologous protein 1 [1]: Compound Z which appears to be a triglucoside of steviol was newly generated
stevioside peak in the reaction solution with UGT73E1 homologous protein 1 ([1]; substrate reacted with UGT73E1 homologous protein 1): no significant stevioside peak can be found

B1: UGT73E1: reported stevia glycosyltransferase, 98% identical to UGT73E1 homologous protein 1 (protein, UniProt Q6VAA9 1-495, looked up)
UDP-glycosyltransferase 73E1: MSPKMVAPPTNLHFVLFPLMAQGHLVPMVDIARILAQRGATVTIITTPYHANRVRPVISRAIATNLKIQLLELQLRSTEAGLPEGCESFDQLPSFEYWKNISTAIDLLQQPAEDLLRELSPPPDCIISDFLFPWTTDVARRLNIPRLVFNGPGCFYLLCIHVAITSNILGENEPVSSNTERVVLPGLPDRIEVTKLQIVGSSRPANVDEMGSWLRAVEAEKASFGIVVNTFEELEPEYVEEYKTVKDKKMWCIGPVSLCNKTGPDLAERGNKAAITEHNCLKWLDERKLGSVLYVCLGSLARISAAQAIELGLGLESINRPFIWCVRNETDELKTWFLDGFEERVRDRGLIVHGWAPQVLILSHPTIGGFLTHCGWNSTIESITAGVPMITWPFFADQFLNEAFIVEVLKIGVRIGVERACLFGEEDKVGVLVKKEDVKKAVECLMDEDEDGDQRRKRVIELAKMAKIAMAEGGSSYENVSSLIRDVTETVRAPH
glycosylation activity on steviol glycosides [2]: no glycosylation activity on steviol glycosides
